Entries after “also recorded” stand apart in the source; their conditions may differ. Where two headings read alike, the source gives them in different places.
Experiments:
ZIKV [1] = test: Viral titer reduction assay, ZIKV in A549 cells; type: cell-based, Zika virus; settings: Zika virus
Procedure: Viral Titer Reduction Assay. A viral titer reduction assay was used to determine the compounds' effect on DENV2 and ZIKV strains, as described previously. […] Human A549 lung carcinoma cells and human primary neural progenitor cells were used, as described previously. […] All experiments were performed in triplicates.

viral NS3 protease = molecular target: T1, viral NS3 protease (Dengue virus type 2, UniProt P29990); test: Protein thermal shift assay (PTSA); type: binding
T1 construct: made in house
Excerpt: Li et al., “Existing Drugs as Broad-Spectrum and Potent Inhibitors for Zika Virus by Targeting NS2B-NS3 Interaction,” Cell Res. 27:1046-1064 (2017), which is hereby incorporated by reference in its entirety.

[2] = test system: ZIKV strain PRVABC59 or ZIKV-Venus; test: ZIKV infection of 3D mini-brain organoids; type: cell-based, Zika virus; settings: 1.5 μM
Excerpt: Culturing of human iPSCs. Human iPSC F11350.1 culture was maintained in feed-free conditions using mTeSR1 medium (StemCell Technologies #85851) with 5× supplement (StemCell Technologies #85852). Cells were maintained on six-well plates coated with human embryonic stem cell-qualified Matrigel at a 1:60 dilution (Corning Catalog #354277) and passaged with ReLeSR (StemCell Technologies #05872). Cortical 3D organoids were generated based on the protocol described by Yoon et al. Yoon et al., “Reliability of Human Cortical Organoid Generation,” Nat. Methods. […] Briefly, iPSCs were dissociated with accutase (ThermoFisher #A1110501) and then plated at a density of 3×10^6 cells per well in AggreWell 800 24-well plate (StemCell Technologies #34811) in Essential 8™ medium (ThermoFisher #A1517001) supplemented with 10 μM rock inhibitor (Tocris #Y27632). The plate was centrifuged at 100×g for 3 min and incubated at 37° C. overnight. […]
To evaluate if JMX0207 protects organoids from ZIKV infections, a full-length infectious ZIKV clone expressing Venus fluorescent protein (ZIKV-Venus) was first generated. […] ZIKV infection was quantified by a plaque forming unit (PFU) assay at 5 dpi and by fluorescence imaging at 7 dpi, respectively. […]

ZIKV [3] = test: Time of addition experiment; type: cell-based, Zika virus; settings: 0.75 μM added post-infection, titers at 48 hrs
Procedure: FIGS. 6A-6C show mechanism of action studies. […] Viral titers were quantified using plaque forming assay 48 hrs post-infection. DMSO was added to control. N=3. ***, p<0.001. […] N=3. […] Right, Band intensities of PP and NS3 normalized to the GAPDH control (N=3). […] Li et al., “Existing Drugs as Broad-Spectrum and Potent Inhibitors for Zika Virus by Targeting NS2B-NS3 Interaction,” Cell Res. 27:1046-1064 (2017), which is hereby incorporated by reference in its entirety. At 48 hrs post-infection, cells were washed, harvested, and protected by protease inhibitor cocktail prior to lysis by SDS-PAGE loading buffer. Upon incubation at 95° C. for 10 min, sample was subjected to Western blot analysis with anti-ZIKV NS3 (GTX133309, GeneTex, Inc.) and anti-GAPDH (CB1001, EMD Millipore) as primary antibodies. Error bars in all panels represent the standard deviations at each condition.
Antiviral inhibitors are generally divided into two categories, entry and post-entry (replication), respectively.

in vitro = settings: not told, Perme. (cell permeability)

T1 sequence (P29990 1476-1659): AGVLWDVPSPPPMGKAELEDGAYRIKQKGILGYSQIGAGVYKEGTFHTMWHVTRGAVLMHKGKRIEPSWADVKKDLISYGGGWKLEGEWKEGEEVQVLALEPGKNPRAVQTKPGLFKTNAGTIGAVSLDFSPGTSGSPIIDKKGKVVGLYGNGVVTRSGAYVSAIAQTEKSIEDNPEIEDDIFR

O=C(Nc1ccc([N+](=O)[O-])cc1Cl)c1cccc([N+](=O)[O-])c1O [JMX0207, N-(2-Chloro-4-nitrophenyl)-2-hydroxy-3-nitrobenzamide]
EC50 (ZIKV [1]; A549, read-out: EC50-ZK): 300 nM | EC50 (ZIKV [1]; A549, read-out: EC50-ZK (A549)): 300 nM | increase in Tm of the viral protein (viral NS3 protease): 0.75 °C | ZIKV infection of 3D organoid ([2]; MOI 1, imaging/immunostaining): completely abolished ZIKV infection; also recorded: nearly completely protected the organoids from ZIKV infection | ZIKV production from 3D organoids ([2]; PFU assay at 5 dpi): ZIKV production was also significantly inhibited | reduction of ZIKV titer by time of addition (ZIKV [3]): equally effective in reducing ZIKV titer even at 24 hrs post-infection | Papp (in vitro): > 1 ×10⁻⁶ cm/s

From patent US11767303B2, “Compounds and methods for inhibiting viral replication and methods of treating and preventing flaviviral infections” (priority 2020, dated 2023)
